In PubChem BioAssay (NCI):
Where “and” joins values, the source holds several entries; their conditions need not be identical. Identical values can stand only once.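 Briefly, cells in 96-well plates were exposed to five compound concentrations for 48 h, and endpoints were estimated by linear interpolation. GI50 is the concentration that inhibits growth by half. Definition used: TGI = concentration required for complete inhibition of growth.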 Where a SMILES comes first, the peptide text is derived from it. The star is where a group is joined. Boc = CC(C)(C)OC(=O)*; Bn = c1ccc(C*)cc1

Tests used:
Assay in all cases: inhibition of tumour cell growth, NCI panel, 48 h
HOP-62 NSCLC = system: HOP-62 NSCLC
EKVX NSCLC = system: EKVX NSCLC
ACHN renal = system: ACHN renal
MOLT-4 leukemia = system: MOLT-4 leukemia
NCI-H226 lung = system: NCI-H226 lung
HL-60(TB) leukemia = system: HL-60(TB) leukemia
NCI/ADR-RES ovarian = system: NCI/ADR-RES ovarian
NCI-H460 lung = system: NCI-H460 lung
OVCAR-8 ovarian = system: OVCAR-8 ovarian
TK-10 renal = system: TK-10 renal
HCT-116 colon = system: HCT-116 colon
LOX IMVI melanoma = system: LOX IMVI melanoma
SK-OV-3 ovarian = system: SK-OV-3 ovarian
IGROV1 ovarian = system: IGROV1 ovarian

SMILES | TGI (HOP-62 NSCLC) | TGI (EKVX NSCLC) | TGI (ACHN renal) | TGI (MOLT-4 leukemia) | TGI (NCI-H226 lung) | TGI (HL-60(TB) leukemia) | TGI (NCI/ADR-RES ovarian) | TGI (NCI-H460 lung) | TGI (OVCAR-8 ovarian) | TGI (TK-10 renal) | TGI (HCT-116 colon) | TGI (LOX IMVI melanoma) | TGI (SK-OV-3 ovarian) | TGI (IGROV1 ovarian) | GI50 (EKVX NSCLC) | GI50 (ACHN renal) | GI50 (NCI-H226 lung) | GI50 (HL-60(TB) leukemia) | GI50 (NCI-H460 lung) | GI50 (TK-10 renal)
CC(=O)Oc1ccc2cc(-c3ccc(OC(C)=O)c(OC(C)=O)c3)c(=O)oc2c1 | > 100 µM | > 100 µM | > 100 µM | > 100 µM | > 100 µM | > 100 µM | > 100 µM | > 100 µM | > 100 µM | > 100 µM | > 100 µM | > 100 µM |  |  |  |  |  |  |  | 
CC(C(=O)n1ccnc1)N1c2ccccc2Sc2ccccc21 (stereo not given) | > 100 µM | > 100 µM | > 100 µM | > 100 µM | > 100 µM | > 100 µM | > 100 µM | > 100 µM | > 100 µM | > 100 µM | > 100 µM | > 100 µM | > 100 µM | > 100 µM |  |  |  |  |  | 
CCOC(=O)C(NC(=O)CC)(Nc1ccc(F)cc1F)C(F)(F)F (stereo not given) |  | > 100 µM | > 100 µM | > 100 µM |  | > 100 µM | > 100 µM |  | > 100 µM | > 100 µM | > 100 µM | > 100 µM | > 100 µM | > 100 µM |  |  |  |  |  | 
CCCCCCCCCCOCCOCCOCCOCCCCC(O)CCCCCCCC1=C[C@H](C)OC1=O (stereo not given in full) |  | 26.4 µM | 36 µM | 20.8 µM | 23.4 µM | 15.5 µM | 41 µM | 22 µM | 33.6 µM | 21.4 µM | 37.7 µM | 28 µM | 41.4 µM | 30.5 µM |  |  |  |  |  | 
Nc1cc(Cl)ccc1SSc1ccc(Cl)cc1N | 29.4 µM | 24.5 µM | 21.3 µM | > 100 µM | 15.4 µM | > 100 µM | 30.4 µM | 31.6 µM | > 100 µM | 40.8 µM | 21.7 µM | 14.2 µM | > 100 µM | 25.5 µM |  |  |  |  |  | 
COC(=O)/N=[N+](\[O-])C(c1ccccc1)c1ccccc1 |  | > 100 µM |  | > 100 µM | > 100 µM | > 100 µM | > 100 µM | > 100 µM | > 100 µM | > 100 µM | > 100 µM | > 100 µM | > 100 µM | > 100 µM |  |  |  |  |  | 
CC1=CC(=O)N(n2c(-c3ccccc3)n[nH]c2=O)C1=O | > 100 µM | > 100 µM | > 100 µM | > 100 µM | > 100 µM | > 100 µM | > 100 µM | > 100 µM | > 100 µM | > 100 µM | > 100 µM | > 100 µM | > 100 µM | > 100 µM |  |  |  |  |  | 
CN(C)c1ccc(/C=C(\NC(=O)c2ccccc2)C(=O)Nc2cccc(C(=O)NCCCO)c2)cc1 | > 100 µM | > 100 µM | > 100 µM | > 100 µM | > 100 µM | > 100 µM | > 100 µM | > 100 µM | > 100 µM | > 100 µM | > 100 µM | > 100 µM | > 100 µM | > 100 µM |  |  |  |  |  | 
NC(=O)Cn1c(=O)oc2cc(C(=O)CN3CCOCC3)ccc21 | > 100 µM | > 100 µM |  | > 100 µM | > 100 µM | > 100 µM | > 100 µM |  | > 100 µM |  | > 100 µM | > 100 µM | > 100 µM | > 100 µM |  |  |  |  |  | 
CN(C)CC1CCC/C(=C\c2ccccc2)C1=O (stereo not given) | 34.2 µM | 33.7 µM | 12.6 µM | > 100 µM | 8.26 µM | > 100 µM | 41.6 µM | 16.9 µM | 14.7 µM | 7.85 µM | 2.91 µM | 3.2 µM | 34 µM | 13.9 µM |  |  |  |  |  | 
O=C(Nc1cccc(C(=O)NCCCO)c1)/C(=C/c1ccccc1)NC(=O)c1ccccc1 | > 100 µM | > 100 µM | > 100 µM | > 100 µM | > 100 µM | > 100 µM | > 100 µM | > 100 µM | > 100 µM | > 100 µM | > 100 µM | > 100 µM | > 100 µM | > 100 µM |  |  |  |  |  | 
Cc1ccccc1Nc1nc(NNC(=O)Cc2ccccc2)nc(NNC(=O)c2ccncc2)n1 | > 10 µM | > 10 µM |  | > 10 µM |  | > 10 µM | > 10 µM | > 10 µM | > 10 µM | > 10 µM |  | > 10 µM | > 10 µM | > 10 µM |  |  |  |  |  | 
Cc1ccsc1C(=S)Nc1ccc(Cl)c(/C=N/OC(C)C)c1 | > 100 µM | > 100 µM | > 100 µM | 35.2 µM | > 100 µM | 34.6 µM | > 100 µM | > 100 µM | > 100 µM | > 100 µM | > 100 µM | > 100 µM | > 100 µM | > 100 µM |  |  |  |  |  | 
CNC(=O)C(CC(C)C)NC(=O)C(C)NC(=O)C(Cc1ccc(OCc2ccccc2)cc1)NC(=O)C(COCc1ccccc1)NC(=O)OC(C)(C)C (stereo not given) (Boc-S(Bn)Y(Bn)AL-NHMe; configuration not given here) | > 53.2 µM and 38.1 µM | > 100 µM and 77.9 µM | > 100 µM | 22.9 µM and 38.5 µM | > 68.5 µM and 39 µM | 30.2 µM and > 100 µM | > 100 µM | > 61.4 µM and 42.6 µM | 35 µM and 48.5 µM | > 100 µM | 20.1 µM and 20.5 µM | 27.5 µM and 48.8 µM | > 60.3 µM and 39.6 µM | 53.9 µM and 63.7 µM | > 100 µM and 26.4 µM | > 100 µM and 13 µM | 44.3 µM and 15.2 µM | 9.51 µM and 3.9 µM | > 41 µM and 18.3 µM | > 73.8 µM and 29.1 µM
CCNc1nnc(-c2ccccc2Nc2ccccc2-c2nnc(NCC)s2)s1 | > 100 µM | > 100 µM | 31 µM | > 78.3 µM | 77.2 µM |  | > 100 µM | 31.3 µM | > 83.9 µM | > 57.6 µM | > 56 µM | 38.5 µM | 31.3 µM | > 100 µM |  |  |  |  |  | 
CCC1CCC2c3c([nH]c4ccc(C)cc34)C3C(=O)N(N(C)C)C(=O)C3C2C1 (stereo not given) | > 100 µM | > 100 µM | > 100 µM | > 100 µM | > 100 µM | > 46.8 µM | > 53.5 µM | > 68 µM | > 100 µM | > 100 µM | 52.9 µM | > 100 µM | > 100 µM | > 100 µM |  |  |  |  |  | 
